Results published in ChEMBL document CHEMBL3044704, “Synthesis, characterization, antioxidant, and anticancer studies of 6-[3-(4-chlorophenyl)-1H-pyrazol-4-yl]-3-[(2-naphthyloxy)methyl][1,2,4]triazolo[3,4-b][1,3,4]thiadiazole in HepG2 cell lines” (Med Chem Res, 2011).
≈ marks a conversion by molar mass, not a printed value. Calls of active or inactive are those of the source. No cut-off for these calls is given here.

What was measured:
[1] = Antioxidant activity assessed as inhibition of ABTS radical production after 20 min by spectrophotometric analysis; type: functional
HepG2 [2] = experiment: Induction of cell cycle arrest in Homo sapiens (human) HepG2 cells assessed as G1 phase cells at 0.06 ug/ml after 24 hr by flow cytometric analysis (reference value: 50.68 +/- 1.42%); type: functional
HepG2 [3] = experiment: Induction of cell cycle arrest in Homo sapiens (human) HepG2 cells assessed as G2/M phase cells at 0.06 ug/ml after 24 hr by flow cytometric analysis (reference value: 12.92 +/- 0.27%); type: functional
HepG2 [4] = experiment: Induction of cell cycle arrest in Homo sapiens (human) HepG2 cells assessed as S phase cells at 0.08 ug/ml after 24 hr by flow cytometric analysis (reference value: 32.84 +/- 1.06%); type: functional
HepG2 [5] = experiment: Induction of cell cycle arrest in Homo sapiens (human) HepG2 cells assessed as increase in subG1 phase cells after 24 hr by flow cytometric analysis; type: functional, cell-based
HepG2 [6] = experiment: Cytotoxicity against Homo sapiens (human) HepG2 cells assessed as inhibition of [3H]thymidine incorporation incubated for 3 hr prior to [3h]thymidine incorporation measured after 2 hr by liquid scintillation counting; type: functional, cell-based
HepG2 [7] = experiment: Induction of cell cycle arrest in Homo sapiens (human) HepG2 cells assessed as subG1 phase cells at 0.08 ug/ml after 24 hr by flow cytometric analysis (reference value: 3.57 +/- 0.03%); type: functional
HepG2 [8] = experiment: Induction of cell cycle arrest in Homo sapiens (human) HepG2 cells assessed as G2/M phase cells at 0.08 ug/ml after 24 hr by flow cytometric analysis (reference value: 12.92 +/- 0.27%); type: functional
HepG2 [9] = experiment: Induction of cell cycle arrest in Homo sapiens (human) HepG2 cells assessed as S phase cells at 0.06 ug/ml after 24 hr by flow cytometric analysis (reference value: 32.84 +/- 1.06%); type: functional
[10] = test system: Radical scavenging activity; experiment: Antioxidant activity assessed as inhibition of DPPH radical production after 20 min by spectrophotometric analysis; type: functional
HepG2 [11] = experiment: Induction of cell cycle arrest in Homo sapiens (human) HepG2 cells assessed as subG1 phase cells at 0.06 ug/ml after 24 hr by flow cytometric analysis (reference value: 3.57 +/- 0.03%); type: functional
HepG2 [12] = experiment: Induction of cell cycle arrest in Homo sapiens (human) HepG2 cells assessed as G1 phase cells at 0.08 ug/ml after 24 hr by flow cytometric analysis (reference value: 50.68 +/- 1.42%); type: functional
HepG2 [13] = experiment: Cytotoxicity against Homo sapiens (human) HepG2 cells assessed as chromatin condensation after 24 hr by Hoechst-staining method; type: functional, cell-based
HepG2 [14] = experiment: Cytotoxicity against Homo sapiens (human) HepG2 cells after 24 hr by MTT assay; type: functional, cell-based; conditions: HepG2, 24 h

For `Clc1ccc(-c2n[nH]cc2-c2nn3c(COc4ccc5ccccc5c4)nnc3s2)cc1`, the inhibition [1] was “Active”, the Activity (HepG2 [2]) was 56.59% and the Activity (HepG2 [3]) was 10.58%. For the same molecule, the Activity (HepG2 [4]) was 23.68%, the Activity (HepG2 [5]) was “Dose-dependent effect” and the inhibition (HepG2 [6]) was “Dose-dependent effect”. It also gave an Activity (HepG2 [7]) of 12.33%, an Activity (HepG2 [8]) of 11.33% and an Activity (HepG2 [9]) of 28.82%. For the same molecule, the IC50 [10] was 1.023 µg/mL (≈ 2.23 µM), the Activity (HepG2 [11]) was 4% and the Activity (HepG2 [12]) was 52.65%. For the same molecule, the Activity (HepG2 [13]) was “Dose-dependent effect” and the IC50 (HepG2 [14]) was 0.8 µg/mL (≈ 1.74 µM).
With `O=C1O[C@H]([C@@H](O)CO)C(O)=C1O` [ASCORBIC ACID] the inhibition [1] was “Active” and the IC50 [10] was 1.46 µg/mL (≈ 8.29 µM).
